pIC50: −log10 of the molar value.
Tests used:
Format in all cases: cell-based
[1] = system: Aβ42; experiment: Screening for γ-secretase-modulating activity, Method 2: Aβ42 Alphalisa on SKNBE2 cell supernatant; conditions: Method 2, Table 3c, SKNBE2 cells carrying APP 695 wild type, overnight incubation
Description: (§1) Screening was carried out using SKNBE2 cells carrying the APP 695—wild type, grown in Dulbecco's Modified Eagle's Medium/Nutrient mixture F-12 (DMEM/NUT-mix F-12) (HAM) provided by Invitrogen (cat no. 10371-029) containing 5% Serum/Fe supplemented with 1% non-essential amino acids, 1-glutamine 2 mM, Hepes 15 mM, penicillin 50 U/ml (units/ml) en streptomycin 50 μg/ml. Cells were grown to near confluency.
(§2) The screening was performed using a modification of the assay as described in Citron et al (1997) Nature Medicine 3: 67. Briefly, cells were plated in a 384-well plate at 10^4 cells/well in Ultraculture (Lonza, BE12-725F) supplemented with 1% glutamine (Invitrogen, 25030-024), 1% non-essential amino acid (NEAA), penicillin 50 U/ml en streptomycin 50 μg/ml in the presence of test compound at different test concentrations. The cell/compound mixture was incubated overnight at 37° C., 5% CO2. The next day the media were assayed by two sandwich immuno-assays, for Aβ42 and Aβtotal.
(§3) Aβtotal and Aβ42 concentrations were quantified in the cell supernatant using the Aphalisa technology (Perkin Elmer). Alphalisa is a sandwich assay using biotinylated antibody attached to streptavidin coated donorbeads and antibody conjugated to acceptor beads. In the presence of antigen, the beads come into close proximity. The excitation of the donor beads provokes the release of singlet oxygen molecules that trigger a cascade of energy transfer in the acceptor beads, resulting in light emission. To quantify the amount of Aβ42 in the cell supernatant, monoclonal antibody specific to the C-terminus of Aβ42 (JRF/cAβ42/26) was coupled to the receptor beads and biotinylated antibody specific to the N-terminus of Aβ (JRF/AβN/25) was used to react with the donor beads. To quantify the amount of Aβtotal in the cell supernatant, monoclonal antibody specific to the N-terminus of Aβ (JRF/AβN/25) was coupled to the receptor beads and biotinylated antibody specific to the mid region of Aβ (biotinylated 4G8) was used to react with the donor beads.
(§4) To obtain the values reported in Table 3c, the data were calculated as percentage of the maximum amount of amyloid Beta 42 measured in the absence of the test compound. The sigmoidal dose response curves were analyzed using non-linear regression analysis with percentage of the control plotted against the log concentration of the compound. A 4-parameter equation was used to determine the IC50.

[2] = system: Aβtotal; experiment: Screening for γ-secretase-modulating activity, Method 2: Aβtotal Alphalisa on SKNBE2 cell supernatant; conditions: Method 2, Table 3c, SKNBE2 cells carrying APP 695 wild type, overnight incubation
Description: as §1, §2, §3, §4

[3] = system: Aβ42; experiment: Screening for γ-secretase-modulating activity, Method 1: Aβ42 sandwich ELISA on SKNBE2 cell media; conditions: SKNBE2 cells carrying APP 695 wild type
Description: as §1, with “Gibco” for “Invitrogen”, “31330-38)” for “10371-029)”, “acids.” for “acids, 1-glutamine 2 mM, Hepes 15 mM, penicillin 50 U/ml (units/ml) en streptomycin 50 μg/ml.”
(§5) The screening was performed using the assay as described in Citron et al (1997) Nature Medicine 3: 67. Briefly, cells were plated in a 96-well plate at about 10^5 cells/ml one day prior to addition of compounds. Compounds were added to the cells in Ultraculture (Lonza, BE12-725F) supplemented with 1% glutamine (Invitrogen, 25030-024) for 18 hours. The media were assayed by two sandwich ELISAs, for Aβ42 and Aβtotal. Toxicity of the compounds was assayed by WST-1 cell proliferation reagent (Roche, 1 644 807) according to the manufacturer's protocol.
To quantify the amount of Aβ42 in the cell supernatant, commercially available Enzyme-Linked-Immunosorbent-Assay (ELISA) kits were used (Innotest® β-Amyloid(1-42), Innogenetics N.V., Ghent, Belgium). The Aβ42 ELISA was performed essentially according to the manufacturer's protocol. Briefly, the standards (dilutions of synthetic Aβ1-42) were prepared in polypropylene Eppendorf with final concentrations of 8000 down to 3.9 pg/ml (1/2 dilution step). Samples, standards and blanks (100 μl) were added to the anti-Aβ42-coated plate supplied with the kit (the capture antibody selectively recognizes the C-terminal end of the antigen). The plate was allowed to incubate 3 h at 25° C. in order to allow formation of the antibody-amyloid complex. Following this incubation and subsequent wash steps a selective anti-Aβ-antibody conjugate (biotinylated 3D6) was added and incubated for a minimum of 1 hour in order to allow formation of the antibody-Amyloid-antibody-complex. After incubation and appropriate wash steps, a Streptavidine-Peroxidase-Conjugate was added, followed 30 minutes later by an addition of 3,3′,5,5′-tetramethylbenzidine (TMB)/peroxide mixture, resulting in the conversion of the substrate into a coloured product. This reaction was stopped by the addition of sulfuric acid (0.9 N) and the colour intensity was measured by means of photometry with an ELISA-reader with a 450 nm filter.
(§6) To obtain the values reported in Table 3a, the sigmoidal dose response curves were analysed by computerised curve-fitting, with percent of inhibition plotted against compound concentration. A 4-parameter equation (model 205) in XLfit was used to determine the IC50. The top and the bottom of the curve were fixed to 100 and 0, respectively, and the hill slope was fixed to 1. The IC50 represents the concentration of a compound that is required for inhibiting a biological effect by 50% (Here, it is the concentration where Aβ peptide level is reduced by 50%).
as §4, with “3b,” for “3c,”, “IC50. The values reported in Table 3b are averaged IC50 values.” for “IC50.”

[4] = system: Aβtotal; experiment: Screening for γ-secretase-modulating activity, Method 1: Aβtotal sandwich ELISA on SKNBE2 cell media; conditions: SKNBE2 cells carrying APP 695 wild type
Description: as §1, with “Gibco” for “Invitrogen”, “31330-38)” for “10371-029)”, “acids.” for “acids, 1-glutamine 2 mM, Hepes 15 mM, penicillin 50 U/ml (units/ml) en streptomycin 50 μg/ml.”
as §5
To quantify the amount of Aβtotal in the cell supernatant, samples and standards were added to a 6E10-coated plate. The plate was allowed to incubate overnight at 4° C. in order to allow formation of the antibody-amyloid complex. Following this incubation and subsequent wash steps a selective anti-Aβ-antibody conjugate (biotinylated 4G8) was added and incubated for a minimum of 1 hour in order to allow formation of the antibody-Amyloid-antibody-complex. After incubation and appropriate wash steps, a Streptavidine-Peroxidase-Conjugate was added, followed 30 minutes later by an addition of Quanta Blu fluorogenic peroxidase substrate according to the manufacturer's instructions (Pierce Corp., Rockford, Ill.).
as §6
as §4, with “3b,” for “3c,”, “IC50. The values reported in Table 3b are averaged IC50 values.” for “IC50.”

[5] = Table 3a, 18 hours, XLfit, top/bottom fixed to 100 and 0, hill slope 1
[6] = Table 3b, non-linear regression of % of control, averaged IC50 values
[7] = Homo sapiens, Table 3b, non-linear regression of % of control, averaged IC50 values

SMILES | pIC50 [1] | pIC50 [2] | pIC50 [3, 6] | pIC50 [4, 6] | further results
COc1cc(Nc2cccc3c2nc(C(C)c2ccc(Cl)cc2)n3C)ccc1-n1cnc(C)n1 (racemic) [Compound 122] | 6.43 | < 5.00 | – | – | –
COc1cc(Nc2cccc3c2nc(Cc2ccc(F)cc2)n3C)ccc1-n1cnc(C)c1 [Compound 81] | – | – | 7.68 | < 6.00 | pIC50 [3, 5]: 7.68; pIC50 [4, 5]: < 6.00
COc1cc(-c2nc3c(Nc4ccc(-n5cncn5)c(F)c4)cccc3n2C)ccc1Cl [Compound 83] | – | – | 7.35 | < 5.52 | pIC50 [3, 5]: 7.33; pIC50 [4, 5]: < 5.52
COc1cc(Nc2cccc3c2nc(-c2cccc(OC)c2Cl)n3C)ccc1-n1cnc(C)n1 [Compound 84] | – | – | 6.85 | < 5.52 | pIC50 [3, 5]: 6.85; pIC50 [4, 5]: < 5.52
Cc1ncnn1-c1ccc(Nc2cccc3c2nc(-c2ccc(F)cc2)n3C(C)C)cc1 [Compound 88] | – | – | 7.14 | < 5.52 | pIC50 [3, 5]: 7.24; pIC50 [4, 5]: < 5.52
COc1cc(Nc2nccc3[nH]c(-c4ccc(F)cc4)nc23)ccc1-n1cnc(C)c1 [Compound 90] | – | – | 7.41 | < 5.30 | pIC50 [3, 5]: 7.41; pIC50 [4, 5]: < 6.00
COc1cc(Nc2nccc3c2nc(-c2ccc(F)cc2F)n3C)ccc1-n1cnc(C)n1 [Compound 98] | – | – | 6.48 | < 5.00 | pIC50 [3, 5]: 6.45; pIC50 [4, 5]: < 5.52
COc1cc(Nc2cccc3c2nc(COc2ccccc2)n3C)ccc1-n1ncnc1C [Compound 99] | – | – | 6.37 | < 5.00 | pIC50 [3, 5]: 6.36; pIC50 [4, 5]: < 5.52
Cc1cc2c(nc(-c3ccc(F)cc3)n2C)c(Nc2ccc(-n3ncnc3C)c(F)c2)n1 [Compound 100] | – | – | 6.18 | < 5.00 | pIC50 [3, 5]: 6.19; pIC50 [4, 5]: < 5.52
COc1cc(Nc2cccc3c2nc(CC(C)C)n3CC(F)(F)F)ccc1-n1cnc(C)n1 [Compound 105] | – | – | 6.89 | 5.60 | pIC50 [3, 5]: 6.89; pIC50 [4, 5]: 5.55
C=C(C)c1cc(Nc2ccc(-n3cnc(C)n3)c(OC)c2)c2nc(-c3ccc(F)cc3)n(C)c2n1 [Compound 109] | – | – | – | – | pIC50 [3, 7]: 7.49; pIC50 [4, 7]: < 5.52
Cc1cn(-c2ccc(Nc3cc(C)nc4c3nc(-c3ccc(F)cc3)n4C)cc2F)cn1 [Compound 112] | – | – | – | – | pIC50 ([1]; Homo sapiens): 7.72; pIC50 ([2]; Homo sapiens): < 5.00
COc1cc(Nc2cc(C)nc3c2nc(-c2ccc(F)cc2)n3C)ccc1-n1cnc(C)n1 [Compound 113] | – | – | – | – | pIC50 ([1]; Homo sapiens): 7.46; pIC50 ([2]; Homo sapiens): < 5.00
COc1cc(Nc2cccc3c2nc(-c2ccc(F)cc2)n3C)ccc1-n1cnc(CO)c1 [Compound 118] | – | – | 7.16 | < 5.52 | –
COCc1cn(-c2ccc(Nc3cccc4c3nc(-c3ccc(F)cc3)n4C)cc2OC)cn1 [Compound 119] | – | – | – | – | pIC50 ([1]; Homo sapiens): 7.19; pIC50 ([2]; Homo sapiens): < 5.00
COc1cc(Nc2cccc3c2nc(C2(c4ccc(Cl)cc4)CC2)n3C)ccc1-n1cnc(C)n1 [Compound 123] | 6.84 | < 5.00 | – | – | –
Cc1cn(-c2ccc(Nc3cccc4c3nc(-c3ccc(=O)n(C)c3)n4C)cc2F)cn1 [Compound 124] | 5.41 | < 5.00 | – | – | –

SMILES | pIC50 [1] | pIC50 [2] | pIC50 [3, 6] | pIC50 [4, 6] | further results
Cc1cn(-c2ccc(Nc3cc(F)cc4c3nc(-c3ccc(F)cc3)n4C(C)C)cc2F)cn1 [Compound 125] | 7.59 | < 5.00 | – | – | –
COc1cc(Nc2cccc3c2nc(-c2cccc(Cl)c2)n3C(C)C)ccc1-n1cnc(C)n1 [Compound 126] | 7.72 | < 5.00 | – | – | –
CCn1c(-c2cc(F)ccc2F)nc2c(Nc3ccc(-n4cnc(C)n4)c(OC)c3)cc(F)cc21 [Compound 127] | – | – | 7.25 | < 5.52 | –
COc1cc(Nc2cc(F)cc3c2nc(-c2ccccc2Cl)n3C)ccc1-n1cnc(C)n1 [Compound 128] | – | – | 7.96 | < 5.52 | –
COc1nc(Nc2cccc3c2nc(-c2cc(F)cc(C(F)(F)F)c2)n3C)ccc1-n1cnc(C)c1 [Compound 132] | 8.30 | 5.34 | – | – | –
COc1nc(Nc2cccc3c2nc(-c2ccc(F)c(Br)c2)n3C)ccc1-n1cnc(C)c1 [Compound 133] | – | – | – | – | pIC50 ([1]; Homo sapiens): 8.05; pIC50 ([2]; Homo sapiens): < 5.00
COc1cc(-c2nc3c(Nc4ccc(-n5cnc(C)c5)c(OC)n4)cccc3n2C)ccc1Cl [Compound 134] | 8.30 | 5.16 | – | – | –
COc1cc(-c2nc3c(Nc4ccc(-n5cnc(C)n5)c(OC)c4)nc(C)cc3n2C)ccc1Cl [Compound 135] | 8.00 | < 5.00 | – | – | –
COc1ccccc1-c1nc2c(Nc3ccc(-n4cnc(C)c4)c(F)c3)nc(C)cc2n1C [Compound 138] | 6.90 | < 5.00 | – | – | –
Cc1cn(-c2ccc(Nc3nc(C)cc4c3nc(-c3ccccc3Cl)n4C)cc2F)cn1 [Compound 139] | 7.46 | < 5.00 | – | – | –
COc1cc(-c2nc3c(Nc4ccc(-n5cnc(C)c5)c(OC)n4)cc(F)cc3n2C)ccc1Cl [Compound 140] | 8.40 | < 5.00 | – | – | –
Cc1cn(-c2ccc(Nc3nc(C)cc4c3nc(-c3cccnc3)n4C)cc2F)cn1 [Compound 143] | 6.26 | < 5.00 | – | – | –
COc1ccc(-c2nc3c(Nc4ccc(-n5cnc(C)c5)c(F)c4)nc(C)cc3n2C)c(F)c1 [Compound 144] | 6.84 | < 5.00 | – | – | –
COc1cc(Nc2nccc3c2nc(-c2ccccc2Cl)n3C)ccc1-n1cnc(C)n1 [Compound 145] | – | – | 6.68 | < 5.52 | –
COc1nc(Nc2cccc3c2nc(-c2ccc(=O)n(C)c2)n3C)ccc1-n1cnc(C)c1 [Compound 146] | 6.46 | < 5.00 | – | – | –
COc1cc(Nc2nc(C)cc3c2nc(-c2ccccc2Cl)n3C)ccc1-n1cnc(C)n1 [Compound 147] | 7.36 | 5.10 | – | – | –
COc1cc(Nc2nc(Cl)cc3c2nc(-c2ccc(F)cc2)n3C)ccc1-n1cnc(C)n1 [Compound 156] | – | – | 7.24 | < 5.52 | –

Reference: patent US8772504B2, “Substituted benzoxazole, benzimidazole, oxazolopyridine and imidazopyridine derivatives as gamma secretase modulators” (Janssen Pharmaceuticals, Inc., priority 2009, dated 2014)
